Consider seven compounds from patent publication US11298354B2, “Methods of use and pharmaceutical combinations of HDAC inhibitors with BET inhibitors” (DANA-FARBER CANCER INSTITUTE, INC., priority 2016, dated 2022).

The structures appear in SMILES notation.

The subject of data set [1] is peripheral blood mononuclear cells (PBMCs) from healthy donors. Nature of the data set: Healthy donor PBMCs cultured with HDAC inhibitors, FACS. The format is cell-based, human. Particulars: for percentage of CD4+FOXP3+ Tregs within PBMCs: FIG. 1C. The text has this: HDAC inhibition results in tumor growth arrest in immunocompetent animal models. The effects of class I and class II HDAC inhibition on leukocytes were investigated using peripheral blood mononuclear cells (PBMCs) obtained from healthy donors.

In data set [2] the test system is PBMCs obtained from non-small cell lung cancer (NSCLC) patients. Nature of the data set: NSCLC patient PBMCs cultured with Compound A or entinostat, FACS. Particulars: for expression of CD86 on CD14+ monocytes / expression of MHC class II molecules on CD14+ monocytes: 24-hour culture, FIG. 4A; for expression of CD69 activation marker on conventional CD8+ and CD4+ T cells: patient PBMC cultures, FIG. 3A, 3B.
Excerpt: Specifically, the phenotype of CD14+CD11b+ monocytes in the peripheral blood of healthy subjects and NSCLC patients, or that of CD14-CD68+CD11b+ macrophages within disaggregated NSCLC tumors were investigated. […] Peripheral blood mononuclear cells (PBMCs) were isolated by Ficoll gradient from fresh or frozen blood samples obtained from healthy donors and consented patients under IRB-approved institutional protocols. […] Cells were then washed and were subjected to phenotypic analysis by FACS. In some experiments, these cultures were performed with purified CD14+ monocytes or CD3+ T cells after purifications from whole PBMCs.

Data set [3] relates to single cell suspensions from dissociated freshly resected NSCLC tumors. Nature of the data set: Dissociated NSCLC patient tumor cell cultures, FACS. The format is cell-based, human. Particulars: 2-D tumor cell cultures, FIG. 4B. The text has this: DMSO was used as a control.
Data set [4] has as its system CD14+ monocytes from patient PBMCs / allogeneic T cells. Nature of the data set: Mixed lymphocyte reaction with drug-exposed CD14+ monocytes. Particulars: monocytes cultured 24 hours with drug, 6 days co-culture, FIG. 4D.
Excerpt: For T cell proliferation assays, T cells were isolated from PBMCs by positive selection using T cell enrichment kit (Miltenyi Biotec) following the manufacturer's instructions. Cells were typically ˜90% pure. […] Cells were washed three times with RPMI+10% FBS, were counted, and were used as responder cells.
For data set [5], the system named is lung adenocarcinomas of KP and TL mice. Briefly: 7-day treatment of KP and TL lung adenocarcinoma mice, tumor immune profiling. The format is in vivo, mouse. An excerpt: Tumor-associated immune cells are important in shaping the course of tumor progression and anti-tumor immunity. The effects of an HDAC6 selective inhibitor on phenotypic and functional changes, especially in the context of tumor antigens, were investigated. Specifically, the effects of an HDAC6 selective inhibitor on immune cells infiltrating lung adenocarcinomas that spontaneously develop in fully immunocompetent genetically engineered mice harboring activating Kras^G12D mutation and concurrent p53 loss (designated as KP), or those with T790M/L858R EGFR mutations (designated TL) were studied. […] Single cell suspensions of lung tumor nodules were generated and subjected to FACS analysis to assess the proportions, phenotype and function of CD45+ immune cell subsets in the tumors isolated from both KP and TL mice.
Mice with existing adenocarcinomas were treated once daily with Compound A for seven days prior to evaluation of dissociated tumors by comprehensive multi-parameter flow cytometry. […] Such increases in the CD8:Treg ratios are often associated with enhanced anti-tumor response. […]
(§1) After incubation, cells were treated with red blood cell lysis buffer and were filtered through a 70 μm cell strainer. After centrifugation, cell pellet was re-suspended in 1×PBS/2% FBS. Cells were counted, and ˜0.5-1×10^6 cells were stained for surface markers in PBS+2% FBS for 15 minutes at 4° C. Intracellular staining was performed for Foxp3, Ki67, CTLA-4, and Bcl-2, using the Foxp3 staining buffer according to the manufacturer's instructions while the cytofix/cytoperm kit (BD Bioscience) was used for intracellular cytokine staining. Briefly, cells were stained for surface markers including CD4, CD8, CD3, followed by intracellular staining with PE-conjμgated anti-IFN-γ, BV421-conj μgated anti-TNF-α, APC-conjugated IL-2, FITC-conjugated Perforin and CD107a (where indicated), or isotype-matched mAbs after permeabilization and fixation. In all stained samples, dead cells were excluded using Live/Dead Fixable dead cell staining kit (Invitrogen). Cells were acquired on the LSR Fortessa (BD Biosciences) and were analyzed with the flowjo software (Treestar).
(§2) For intracellular cytokine detection assays, immune cells from tumors of treated or control mice were obtained after ficoll gradient separation as previously described. 1×10^6 cells were cultured with PMA (50 ng) and Ionomycin (500 ng) for 6 hours at 37° C., and GolgiPlμg (BD Pharmingen) was added for the last 5 hours of culture. For equivalent assays utilizing human PBMCs, 0.5×10^6 cells were similarly stimulated prior to analysis.
Tumor-associated macrophages (TAMs; CD45+CD11c+CD11b^lo) and CD45+CD3+CD25^lo/− T cells were sorted into 96-well plates containing 50 μl of 1×PBS with Recombinant Ribonuclease Inhibitor (Life Technologies) isolated from tumor tissues by FACS sorting. Briefly, tumor cell suspensions were incubated with live/dead fixable dye after FcγR blocking and subsequently stained with antibodies against CD45, CD3, CD8, CD11b, and CD11c. Smart-Seq2 libraries were prepared by the Broad Technology Labs and sequenced by the Broad Genomics Platform.

The test system of data set [6] is lung adenocarcinomas of KP mice. Briefly: Long-term efficacy study in KP mice. To be noted: I.P. once daily, MRI, FIG. 6 and 8A.
Description: Tumor growth was monitored weekly by MRI.
For lung tumor induction, mice received 1×10^6 cfu cre-encoding adenovirus intranasally at 5-6 weeks of age. Tumor formation (typically 6-8 weeks post inoculation) and volume was confirmed by MRI and was quantified using the 3D-slicer software. […] All mice were maintained under specific pathogen-free conditions.
JQ1 was formulated in 10% DMSO and 90% of 10% 2-hydroxylpropyl β-cyclodextrin (Sigma), and was administrated to mice at 25 mg/kg I.P. daily. Vehicle control was prepared by diluting DMSO into the related drug vehicle. […] Depletion of relevant cell types was confirmed by flow cytometry one day after the second dose using peripheral blood obtained from the tail vein.
For data set [7] the following is noted: current clinical trials of hematologic cancers; cited from earlier work.
Data set [8] relates to lung adenocarcinomas of KP mice. Nature of the data set: Immune profiling of KP tumor nodules after 4-6 weeks of treatment. The format is in vivo, mouse. As to the method: For immune profiling, cohorts of mice were sacrificed after 4-6 weeks of treatment and tumor cell suspensions were subjected to FACS analysis. […] In addition, immune cells isolated from tumors of mice treated with indicated drugs were stimulated ex-vivo for 6 hours in the presence of golgi plug. […] Equivalent numbers of each of these populations were co-cultured for two days in the presence of tumor cell lysate.
as §1, §2

The test system of data set [9] is CD3+CD4+CD25hi Treg cells from spleen of wild-type mice. Nature of the data set: Mouse splenic T cells and Tregs cultured with JQ1. The format is cell-based. The text has this:
A combination treatment with an HDAC6 selective inhibitor and a complementary immunomodulatory agent can achieve greater levels of immune-based control of tumor growth in these NSCLC models. JQ1 was previously shown to have an anti-tumor effect in KP mice in part due to downregulation of MYC and induction of apoptosis in tumor cells. […] T cells were isolated from the spleen of wild-type mice and sorted into CD3+CD25− (T cells) or CD3+CD4+CD25hi (Treg) subsets and subsequently cultured in the presence or absence of JQ1 (1 μM). Cultures were supplemented with 100 IU/mL of recombinant IL-2. Cells were washed after two days of culture and their phenotype was evaluated by FACS. For the CSFE dilution shown in FIG. 7C, 2×10^5 CFSE-labelled purified T cells obtained from the spleen of naïve mice were co-cultured with 1.0×10^5 mitomycin C treated, T-depleted spleen cells which served as APCs. 0.5 μg of soluble anti-CD3 was then added to each well along with graded numbers of Tregs (indicated by Treg:T cell ratios).

[10] abbreviates: PBMCs from healthy donors, FIG. 4C.
Setting [11] is: KP and TL mice, 7 days, FIG. 5K-5M.
[12] abbreviates: KP and TL mice, once daily for seven days, FIG. 5A-5B.
The mark [13] stands for this setting: JQ1 1 μM, two days of culture, FIG. 7B.

For the compound `CN1CCc2c(c3ccccc3n2Cc2ccc(C(=O)NO)cc2)C1` [Tubastatin, Tubastatin A, reference compound], the “percentage of CD4+FOXP3+ Tregs within PBMCs” value (“percentage” for short) in data set [1] (healthy donor PBMCs, 24 hours) is listed as “did not significantly impact”.

Turning to `O=C(NO)c1cnc(NC2(c3ccccc3)CC2)nc1` [Compound D, N-hydroxy-2-((1-phenylcyclopropyl)amino)pyrimidine-5-carboxamide], the “percentage” value in [1] (healthy donor PBMCs, 24 hours) was “effect was still present”.

Regarding `O=C(CCCCCCNC(=O)c1cnc(N(c2ccccc2)c2ccccc2)nc1)NO` [Compound A, 2-(diphenylamino)-N-(7-(hydroxyamino)-7-oxoheptyl)pyrimidine-5-carboxamide], in [2], the “expression of CD86 on CD14+ monocytes” value is “up-regulated”; the “expression of MHC class II molecules on CD14+ monocytes” value is reported as “up-regulated”; the “expression of CD69 activation marker on conventional CD8+ and CD4+ T cells” value (shortened to “expression of CD69 activation marker”) is on record as “substantially up-regulated”. Besides, in data set [3], the “expression of CD86 on CD14-CD68+CD11b+ macrophages” value is “increased expression” and the “expression of MHC class II on CD14-CD68+CD11b+ macrophages” value is given as “increased expression”. In data set [1] (setting [10]), the “expression of CD86 on monocytes” value was “increased expression” and the “expression of MHC class II on monocytes” value is given as “increased expression”. In data set [1] (healthy donor PBMC cultures, 24 hours, FIG. 3C, 3D), the “expression of CD69 activation marker” value was “substantially up-regulated”. In data set [1] (healthy donor PBMCs, 24 hours), the “percentage” value is listed as “reduced most significantly”. Moreover, the “phospho-STAT3 expression on T cells” value in data set [1] (healthy donor PBMCs, FIG. 3E) is “increase”. Also, the “induction of allogeneic T cell proliferative responses by exposed CD14+ monocytes” value in data set [4] is on record as “superior”. Besides, in [5] (setting [11]), the “expression levels of CD86 on CD11c+CD11b lo tumor-associated macrophages” value is “significantly elevated expression levels” and the “expression levels of MHC class II on CD11c+CD11b lo tumor-associated macrophages” value is reported as “significantly elevated expression levels”. Also, in [5] (setting [12]), the “CD4+Foxp3+ Treg cells among lymphoid cells” value is “significant decreases” and the “frequency of tumor-infiltrating CD8+ T cells” value was “modest increases”. The “genes associated with T cell activation and effector function (Cd69, Sell, Cd44, Prf1) in tumor-infiltrating T cells” value in data set [5] (KP mice, single cell RNA-Seq, vs vehicle, FIG. 5N) was “up-regulated”. The “inhibitory receptor molecule expression on tumor-infiltrating T cells” value in data set [5] (PD-1, CTLA-4, TIM3, seven days, FIG. 5D-5G) was “no substantial phenotypic changes”. The “secretion of IFN-γ and TNF-α by tumor-infiltrating CD8+ T cells” value in data set [5] (ex-vivo stimulation, vs vehicle, FIG. 5H) is “enhanced capacity to secrete”. Besides, the “CD69 activation marker on tumor-infiltrating CD8+ T cells” value in [5] (seven days treatment, vs vehicle, FIG. 5H) is listed as “increased expression levels”. For the same compound, the “expression of genes associated with MHC class II (Cd74, H2-Aa) in TAMs” value in data set [5] (single cell RNA-Sequencing, vs control mice, FIG. 5N) is “higher expression”. The tumor growth entry in data set [6] is recorded as “marginal delay”. In addition, in data set [7], the safety profile result was “favorable safety profile”. Also, the “MHC class II molecules on TAMs” value in data set [8] (FIG. 9G) is recorded as “markedly promoted the up-regulation”. Moreover, the “CD86 on TAMs” value in [8] (FIG. 9H) is listed as “markedly promoted the up-regulation”.

Consider `O=C(NO)c1cnc(NC2(c3cccc(F)c3)CCCCC2)nc1` [Compound C, 2-((1-(3-fluorophenyl)cyclohexyl)amino)-N-hydroxypyrimidine-5-carboxamide], for which, in data set [1] (healthy donor PBMCs, 24 hours), the “percentage” value was “did not significantly impact”.

Consider `Nc1ccccc1NC(=O)c1ccc(CNC(=O)OCc2cccnc2)cc1` [Entinostat, entinostat, reference compound], for which, in [2], the “expression of CD86 on CD14+ monocytes” value was “neither addition of DMSO nor entinostat up-regulated”; the “expression of MHC class II molecules on CD14+ monocytes” value is listed as “neither addition of DMSO nor entinostat up-regulated”; the “expression of CD69 activation marker” value is reported as “not”. Also, in data set [1] (healthy donor PBMCs, 24 hours), the “percentage” value is recorded as “effect was still present”.

`O=C(CCCCCCNC(=O)c1cnc(N(c2ccccc2)c2ccccc2Cl)nc1)NO` [Compound B, 2-((2-chlorophenyl)(phenyl)amino)-N-(7-(hydroxyamino)-7-oxoheptyl)pyrimidine-5-carboxamide]: the “percentage” value in data set [1] (healthy donor PBMCs, 24 hours) is “reduced most significantly”. Also, in [5] (KP mice, 7 days, FIG. 5I), the “activation of CD8 T cells (CD69 activation marker)” value is “increased activation” and the “expression of MHCII on tumor associated macrophages” value is “increased expression”.

For `Cc1sc2c(c1C)C(c1ccc(Cl)cc1)=NC(CC(=O)OC(C)(C)C)c1nnc(C)n1-2` (stereo not drawn) [JQ1], the “suppressive function of Tregs vs unexposed counterparts” value in data set [9] (CFSE dilution, FIG. 7C) is recorded as “less suppressive”. In data set [9] (setting [13]), the “expression levels of Foxp3 on Tregs” value was “diminished expression levels” and the “expression levels of PD-1 on Tregs” value is “diminished expression levels”. In addition, the tumor growth entry in data set [6] is “moderate”. Also, in [8] (4-6 weeks, FIG. 9B), the “Treg fractions/proportions in tumors” value is listed as “more substantial reduction”.
